The source of these data is patent US8329675B2, “Inhibitors of fatty acid amide hydrolase” (Infinity Pharmaceuticals, Inc., priority 2006, dated 2012).

SMILES strings stand for the structures.

In one experiment the target is T1, rat FAAH (Rattus norvegicus, UniProt P97612).
T1 construct: Five rat livers are homogenized in five fold volume with ice cold Tris; from tissue; host or cells: rat liver; 40,000 g membrane pellet solubilised in 1% Triton X-100
T1 sequence (P97612 1-579): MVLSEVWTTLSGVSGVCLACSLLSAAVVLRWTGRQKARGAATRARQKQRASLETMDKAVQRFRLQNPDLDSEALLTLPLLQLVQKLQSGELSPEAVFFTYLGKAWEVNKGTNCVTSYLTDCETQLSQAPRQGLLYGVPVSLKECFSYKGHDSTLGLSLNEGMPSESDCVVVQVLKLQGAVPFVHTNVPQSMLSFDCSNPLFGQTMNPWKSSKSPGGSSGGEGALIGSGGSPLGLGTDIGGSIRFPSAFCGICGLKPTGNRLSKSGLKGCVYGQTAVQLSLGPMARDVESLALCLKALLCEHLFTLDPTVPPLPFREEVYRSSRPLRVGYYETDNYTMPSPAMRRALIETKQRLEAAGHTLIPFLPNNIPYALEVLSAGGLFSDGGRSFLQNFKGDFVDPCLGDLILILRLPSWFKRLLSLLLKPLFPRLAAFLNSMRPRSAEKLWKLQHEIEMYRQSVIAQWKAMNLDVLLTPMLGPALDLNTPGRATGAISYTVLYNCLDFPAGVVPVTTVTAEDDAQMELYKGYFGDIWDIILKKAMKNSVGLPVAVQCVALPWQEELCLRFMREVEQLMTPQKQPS
Description: Rat FAAH biochemical inhibition assay (AMC arachidonoyl amide fluorescence). The conditions noted are these: Table 1, rat FAAH (asterisk). An excerpt:
The following assays may be used to determine the inhibition of FAAH by the compounds of the present invention: (1) a fluorescence-based assay for fatty acid amide hydrolase compatible with high-throughput screening as described in Manjunath et al., Analytical Biochemistry (2005) 343:143-151; and (2) a high-throughput screening for the discovery of inhibitors of fatty acid amide hydrolase using a microsome-based fluorescent assay. Wang et al., Biomolecular Screening (2006) 1-9.
Rat FAAH Preparation: Five rat livers are homogenized in five fold volume with ice cold Tris (20 mM pH 8.0) and 0.32 M Sucrose solution via an Ultra Turrax T25 homogenizer. All subsequent preparation steps are carried out at 4° C. The homogenate is centrifuged at 6000 g, for 20 minutes and the pellet, containing nuclear debris and mitochondria is discarded. The supernatant is centrifuged at 40,000 g for 30 minutes. […]
Rat FAAH Biochemical Inhibition Assay; Materials and methods: Rat FAAH biochemical assays are carried out in a 96 well flat bottom black non-treated polystyrene plates (Corning Costar Catalogue #3915). […] FAAH substrate—AMC Arachidonoyl Amide (Cayman Chemicals Company, Catalogue #10005098) The reaction is read in an Envision microtiter plate reader [Excitation filter 355 nm (40 nm bandpass); Emmision filter 460 nm (25 nm bandpass)]. The raw fluorescence is plotted on the y axis and the inhibitor concentration on the x axis to give a dose response inhibition curve. […]
Rat FAAH Biochemical Inhibition Assay; Experimental Protocol: The principle of this assay is the hydrolysis of AMC-Arichodonoyl, a fluorescent analogue of Anandamide, which results in the formation of Arachidonic acid and AMC. The formation of AMC results in an increase in fluorescence (see, for example, Manjunath et al., Analytical Biochemistry (2005) 343:143-151; and Wang et al., Bimolecular Screening (2006) 1-9).
A 0.49 mg/ml Rat liver FAAH solution is made up in FAAH reaction buffer, and 78 ul pipetted into a 96 well plate. […] The microtiter plate is read in the envision plate reader. […]
Take `CCCCCCOc1ccc(B(O)O)cc1` [Compound I-130]: the Ki fell in the range of 10 to 1000 nM.

`OB(O)c1cc2ccccc2s1` [Compound I-127] displayed a Ki of 10 to 1000 nM.

Staying with this experiment, now noted: Table 2, rat FAAH (asterisk).
The molecule `CCCCOc1cccc(B(O)O)c1` [II-315] yielded a Ki of 10 to 1000 nM.

The next experiment concerns the target T2, human FAAH (Homo sapiens, UniProt O00519).
T2 construct: host or cells: COS-7 cells, transient transfection; 13,000 g membrane fraction solubilised in 1% Triton X-100
T2 sequence (O00519 1-579): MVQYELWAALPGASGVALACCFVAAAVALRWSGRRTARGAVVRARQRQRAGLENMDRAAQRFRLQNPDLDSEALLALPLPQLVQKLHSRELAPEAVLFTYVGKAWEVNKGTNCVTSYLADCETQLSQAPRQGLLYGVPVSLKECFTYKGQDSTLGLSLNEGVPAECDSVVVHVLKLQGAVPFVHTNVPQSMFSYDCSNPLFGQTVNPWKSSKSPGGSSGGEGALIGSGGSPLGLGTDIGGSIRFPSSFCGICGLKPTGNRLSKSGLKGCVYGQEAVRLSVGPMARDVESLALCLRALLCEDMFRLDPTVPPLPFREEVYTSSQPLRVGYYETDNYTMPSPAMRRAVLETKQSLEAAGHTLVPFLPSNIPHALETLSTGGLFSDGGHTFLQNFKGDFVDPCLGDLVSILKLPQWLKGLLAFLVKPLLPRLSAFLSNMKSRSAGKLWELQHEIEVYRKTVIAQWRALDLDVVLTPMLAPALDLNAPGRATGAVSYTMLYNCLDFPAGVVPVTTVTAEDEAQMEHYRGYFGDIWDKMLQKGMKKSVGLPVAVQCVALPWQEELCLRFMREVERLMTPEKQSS
Description: Human FAAH biochemical inhibition assay (AMC arachidonoyl amide fluorescence). As to conditions: Table 1, human FAAH (no asterisk); read-out: Activity (Ki). The procedure, abridged:
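Solubilized membrane fraction from COS-7 cells transfected with human FAAH, used at a final 0.05 mg/ml in 50 mM Hepes pH 7.5, 1 mM EDTA, 0.2% Triton X-100. Inhibitor pre-incubated 30 min at room temperature; 20 uM final AMC arachidonoyl amide added, reaction run 4 h at room temperature, fluorescence read.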
As to `CS(=O)(=O)c1cccc(B(O)O)c1` [Compound I-47], the Ki is greater than 1000 nM.

`OB(O)c1ccncc1` [Compound I-90]: the Ki was greater than 1000 nM.

Take `Cc1ccccc1B(O)O` [Compound I-81]: the Ki was greater than 1000 nM.

With `COc1cccc(B(O)O)c1` [Compound I-76], the Ki was greater than 1000 nM.

Staying with this experiment, now noted: Table 2, human FAAH (no asterisk); read-out: Activity (Ki).
Take `CN(Cc1ccccc1)Cc1ccc(B(O)O)cc1` [II-131]: the Ki is less than 10 nM.

On to `OB(O)c1ccc(-c2cccc(F)c2)c(Cl)c1` [II-20], for which the Ki was 10 to 100 nM.

In the case of `OB(O)c1ccc(Oc2ccncc2)cc1` [II-292], the Ki fell in the range of 10 to 1000 nM.

`OB(O)c1ccc(-c2cccc(-c3ccccc3)c2)cc1F` [II-26]: the Ki was less than 10 nM.

With `COC(=O)c1cccc(Oc2ccc(B(O)O)cc2)c1` [II-285], the Ki was less than 10 nM.

In the case of `CN(C)c1cccc(-c2ccc(B(O)O)c(F)c2)c1` [II-4], the Ki is less than 10 nM.

Turning to `CCCCOc1cccc(Oc2ccc(B(O)O)cc2)c1` [II-243], the Ki is less than 10 nM.

In the case of `Cc1cc(-c2cccc(F)c2)ccc1B(O)O` [II-208], the Ki lay within 10 to 100 nM.

`OB(O)c1ccc(OCCc2ccc(C(F)(F)F)cc2)cc1F` [II-52]: the Ki was less than 10 nM.
